Laboratory results published in a compilation of properties of binary mixtures (doi:10.1016/j.molliq.2013.10.014).

Experiment: xn = mol fraction of the nth substance listed
Conditions: 100 kPa

c1ccsc1 + CCCC[n+]1ccn(C)c1.O=S(=O)([N-]S(=O)(=O)C(F)(F)F)C(F)(F)F
viscosity [mPa·s]
Conditions	x1 = 0.089	x1 = 0.276	x1 = 0.336	x1 = 0.561	x1 = 0.77	x1 = 1
298.15 K	42.6	26.6	23.2	–	6.86	–
308.15 K	–	–	16.58	10.95	5.35	0.585
318.15 K	20.8	13.9	12.37	8.45	4.29	0.525
328.15 K	15.53	10.66	9.54	6.72	3.52	0.47

c1ccccc1 + CCCC[n+]1ccn(C)c1.O=S(=O)([O-])C(F)(F)F
x1 = 1
Conditions	viscosity [mPa·s]
298.15 K	0.605
328.15 K	0.363

c1ccccc1 + CC[n+]1ccn(C)c1.O=S(=O)([N-]S(=O)(=O)C(F)(F)F)C(F)(F)F
x1 = 1
Conditions	viscosity [mPa·s]
298.15 K	0.605
308.15 K	0.527
318.15 K	0.466
328.15 K	0.363

CCCC[n+]1ccn(C)c1.O=S(=O)([O-])C(F)(F)F + c1ccccc1
viscosity [mPa·s]
Conditions	x2 = 0	x2 = 0.122	x2 = 0.304	x2 = 0.353	x2 = 0.467	x2 = 0.573
298.15 K	–	–	37.2	32.8	19.8	–
308.15 K	56.4	–	–	22.6	14.22	9.37
318.15 K	38.3	29.2	18.23	16.33	–	–
328.15 K	27.3	21.2	–	12.3	–	5.71

CC[n+]1ccn(C)c1.O=S(=O)([N-]S(=O)(=O)C(F)(F)F)C(F)(F)F + c1ccccc1
viscosity [mPa·s]
Conditions	x2 = 0	x2 = 0.135	x2 = 0.339	x2 = 0.471	x2 = 0.492
298.15 K	33	–	–	11.41	10.4
308.15 K	23.7	18.44	11.75	8.65	7.98
318.15 K	17.69	14.02	9.11	–	6.31
328.15 K	–	10.93	–	5.5	5.16

CCCC[n+]1ccn(C)c1.O=S(=O)([N-]S(=O)(=O)C(F)(F)F)C(F)(F)F + c1ccsc1
x2 = 0
Conditions	viscosity [mPa·s]
298.15 K	51.32
308.15 K	34.4
318.15 K	24.4
